Consider three compounds from patent US20050032761A1, “Lipid profile modulation” (priority 2001, published 2005).

Molecules are shown by their SMILES.

In series [1] the target is T1, 5β-reductase (Homo sapiens, UniProt P51857).
T1 sequence (P51857 1-326): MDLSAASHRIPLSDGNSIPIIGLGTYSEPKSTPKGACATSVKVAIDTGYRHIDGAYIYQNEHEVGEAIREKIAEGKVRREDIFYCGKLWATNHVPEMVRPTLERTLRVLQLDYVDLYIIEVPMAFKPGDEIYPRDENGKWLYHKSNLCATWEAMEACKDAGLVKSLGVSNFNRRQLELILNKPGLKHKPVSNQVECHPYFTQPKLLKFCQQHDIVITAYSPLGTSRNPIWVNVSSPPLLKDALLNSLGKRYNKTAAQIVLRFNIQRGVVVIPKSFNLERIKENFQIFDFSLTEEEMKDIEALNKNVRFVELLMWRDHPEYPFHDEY
As to conditions: reported (70); cited from earlier work.

For series [2], the system named is glucocorticoid receptor-mediated response in human skin. As to the kind of experiment: Skin blanching after topical application to forearm skin. The series is classed as in vivo. Particulars: applied together with beclomethasone, 12 healthy humans. The procedure: The intensity of skin blanching was recorded the following day by two observers who were blind to the order of application of steroid solutions, as described (80).

Series [3] has as its target T2, 11β-HSD1 (Rattus norvegicus, UniProt P16232). As to the kind of experiment: Incubation of beclomethasone with homogenised rat liver. The series is classed as in vitro ADME. The arrangement: incubation of beclomethasone with homogenised rat liver; from tissue; host or cells: homogenised rat liver. Particulars: HPLC, UV 254 nm.
Series [4] is described as follows: Oral glucose tolerance test in lean and obese Zucker rats. The series is classed as in vivo. The procedure: (§1) Drug treatment—Drug treatment was commenced when the animals were 6 weeks of age. […] Animals were weighed regularly to allow accurate dosing with drugs, and to follow the progress of weight gain. Food intake for each cage of 4 animals was measured daily. After two weeks of treatment animals underwent an oral glucose tolerance test, which consisted of an overnight fast, followed by an oral glucose load of 2 g/kg body weight at 0900 h. Blood samples were taken by tail-nick at 0, 30 and 120 min after the glucose bolus. […] Glucose concentrations were determined using a hexokinase glucose assay kit (Sigma, Poole, UK), for which the inter- and intra-assay coefficients of variation were both <2%.

A short description of series [5]: Carbenoxolone randomised double-blind crossover study, fasting plasma lipids. Particulars: men with type 2 diabetes mellitus and healthy controls, vs placebo.
From the text: Fasting levels of plasma lipids are shown.
Series [6] in a line: Food intake and body weight in lean and obese Zucker rats treated with carbenoxolone. It is filed as in vivo. Particulars: lean or obese animals; 50 mg/kg by gavage daily, three weeks. The procedure: Groups of eight 5-week-old male obese and lean Zucker rats (Harlan Orlac, Bicester, UK) were characterised by phenotype; maintained under controlled conditions of light (on 0800 h-2000 h) and temperature (21° C.) and allowed free access to standard rat chow. (Special Diet Services, Witham, UK) and drinking water. Drug treatment—Drug treatment was commenced when the animals were 6 weeks of age. […] Animals were weighed regularly to allow accurate dosing with drugs, and to follow the progress of weight gain. Food intake for each cage of 4 animals was measured daily. After two weeks of treatment animals underwent an oral glucose tolerance test, which consisted of an overnight fast, followed by an oral glucose load of 2 g/kg body weight at 0900 h. Blood samples were taken by tail-nick at 0, 30 and 120 min after the glucose bolus.

Series [7] concerns the target T3, 11β-HSD1 (Homo sapiens, UniProt P28845).
T3 construct: host or cells: human subjects in vivo
Particulars: humans; cited from earlier work.

The nature of series [8]: Hypothalamic pituitary adrenal axis: adrenal weight and plasma corticosterone in Zucker rats. It is filed as in vivo. The procedure: as §1, with “Plasma assays—Corticosterone levels” for “Glucose concentrations”, “measured in plasma prepared from terminal blood samples collected at 0900-1100 h” for “determined”, “an in-house radioimmunoassay (74). The” for “a hexokinase glucose assay kit (Sigma, Poole, UK), for which the”, “were<10%.” for “were both <2%.”

Series [9] concerns the target T2, 11β-HSD1. The series can be described thus: 11β-HSD1 activity in tissue homogenates after carbenoxolone administration. The arrangement: from tissue; host or cells: Zucker rat liver, quadriceps skeletal muscle, subcutaneous lumbar fat, omental fat homogenates; species or system Zucker rats. As to conditions: ex vivo, liver; lean and obese animals. The procedure: (§2) Drug treatment—Drug treatment was commenced when the animals were 6 weeks of age. […] Animals were weighed regularly to allow accurate dosing with drugs, and to follow the progress of weight gain. Food intake for each cage of 4 animals was measured daily. After two weeks of treatment animals underwent an oral glucose tolerance test, which consisted of an overnight fast, followed by an oral glucose load of 2 g/kg body weight at 0900 h. Blood samples were taken by tail-nick at 0, 30 and 120 min after the glucose bolus.
Measurement of enzyme activities in vitro—11β-HSD1 activity was measured in homogenates of tissues by incubating in duplicate at 37° C., in Krebs Ringer buffer containing glucose (0.2%), NADP (2 mM) and 1,2,6,7-[^3H]4-corticosterone (100 nM). Conditions were optimised for each tissue to ensure first order kinetics, by adjusting protein concentrations as follows: 10 μg/ml for liver; 1.5 mg/ml for quadriceps skeletal muscle; 0.5 mg/ml for subcutaneous lumbar fat and 1 mg/ml for omental fat. […] Steroids were separated by HPLC using a reverse phase μ-Bondapak C18 column at 20° C. and quantified by on-line liquid scintillation counting. No peaks other than ^3H-corticosterone and ^3H-11-dehydrocorticosterone were detected under these conditions.

In series [10] the target is T4, 5β-reductase (Rattus norvegicus, UniProt P31210).
T4 construct: conversion of [^3H]-corticosterone to [^3H]-5β-tetrahydrocorticosterone in liver cytosol preparations; from tissue; host or cells: Zucker rat liver cytosol
T4 sequence (P31210 1-326): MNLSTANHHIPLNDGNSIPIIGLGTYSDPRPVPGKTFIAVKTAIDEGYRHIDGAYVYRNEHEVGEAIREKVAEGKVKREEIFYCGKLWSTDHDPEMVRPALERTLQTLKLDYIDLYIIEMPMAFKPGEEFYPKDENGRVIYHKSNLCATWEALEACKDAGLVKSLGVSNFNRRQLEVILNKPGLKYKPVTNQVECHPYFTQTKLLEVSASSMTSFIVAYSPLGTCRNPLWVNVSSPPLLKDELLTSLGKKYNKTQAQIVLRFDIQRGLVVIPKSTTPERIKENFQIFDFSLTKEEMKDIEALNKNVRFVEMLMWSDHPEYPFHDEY
The series can be described thus: Hepatic 5β-reductase activity in liver cytosol after carbenoxolone administration. It is filed as in vivo, Zucker rats. As to conditions: obese animals. The procedure:
as §2
5β-Reductase activity in the liver was assessed by the conversion of [^3H]-corticosterone to [^3H]-5β-tetrahydrocorticosterone in liver cytosol preparations. The sub-cellular localisation and cofactor preference of 11β-HSD1 and 5β-reductase differ such that the enzyme activities can be measured independently of one another. Liver cytosol was prepared by repeated centrifugation according to the method of (Fleischer & Kervina 1974). Enzyme activity was measured by incubating cytosol (100 μg protein/ml) in duplicate at 37° C., in phosphate buffer (40 mM Na2PO4, 320 mM sucrose, 1 mM dithiothreitol, pH 7.5) containing NADPH (1 mM) and [^3H]-corticosterone (150 nM). […] Steroids were separated by HPLC using a reverse phase C8 column at 10° C., and quantified by on-line liquid scintillation counting. […]

Series [11] is described as follows: Non-fasting plasma lipid levels in lean and obese Zucker rats. It is filed as in vivo. The procedure:
as §2, with “bolus. […] Lipid levels were measured in plasma prepared from terminal blood samples collected at 0900-1100 h. Triglycerides, total cholesterol and HDL cholesterol were measured using […] (TG, CHOL and HDL C-plus respectively) from Roche Diagnostics, Mannheim, Germany. Non-esterified fatty acids (NEFAs) were measured using the Wako NEFA C enzymatic assay (Alpha Laboratories Ltd, Hampshire, UK).” for “bolus.”

[12] abbreviates: non-fasting plasma, obese animals.

T2 sequence (P16232 whole entry): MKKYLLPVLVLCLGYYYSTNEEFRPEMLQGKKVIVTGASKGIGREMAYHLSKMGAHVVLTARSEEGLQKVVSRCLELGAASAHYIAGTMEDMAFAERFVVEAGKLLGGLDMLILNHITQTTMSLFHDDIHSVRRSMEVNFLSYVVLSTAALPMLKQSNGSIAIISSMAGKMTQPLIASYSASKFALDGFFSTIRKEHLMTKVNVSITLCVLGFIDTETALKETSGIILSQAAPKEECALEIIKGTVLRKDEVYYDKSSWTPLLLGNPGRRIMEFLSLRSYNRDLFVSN
T3 sequence (P28845 whole entry): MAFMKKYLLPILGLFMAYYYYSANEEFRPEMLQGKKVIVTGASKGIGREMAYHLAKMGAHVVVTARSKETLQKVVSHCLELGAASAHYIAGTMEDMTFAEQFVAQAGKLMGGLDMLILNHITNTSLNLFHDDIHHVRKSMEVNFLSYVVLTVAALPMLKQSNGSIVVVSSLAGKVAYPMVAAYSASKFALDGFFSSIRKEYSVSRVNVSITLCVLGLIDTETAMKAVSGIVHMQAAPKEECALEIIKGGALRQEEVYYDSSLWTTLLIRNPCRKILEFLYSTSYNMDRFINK

For `CC1(C)[C@@H](O)CC[C@]2(C)[C@H]3C(=O)C=C4[C@@H]5C[C@@](C)(C(=O)O)CC[C@]5(C)CC[C@@]4(C)[C@]3(C)CC[C@@H]12` [Glycyrrhetinic acid], the “inhibition of 5β-reductase” value at 5β-reductase [1] is “inhibit”. Also, the “blanching response to beclomethasone (area under the dose-response curve)” value in series [2] was “reduced”.

For `C[C@H]1C[C@H]2[C@@H]3CCC4=CC(=O)C=C[C@]4(C)[C@@]3(Cl)[C@@H](O)C[C@]2(C)[C@@]1(O)C(=O)CO` [beclomethasone], at 11β-HSD1 [3], the “conversion of beclomethasone to 11-dehydrobeclomethasone” value was “substrate”.

As to `CC1(C)[C@@H](OC(=O)CCC(=O)O)CC[C@]2(C)[C@H]3C(=O)C=C4[C@@H]5C[C@@](C)(C(=O)O)CC[C@]5(C)CC[C@@]4(C)[C@]3(C)CC[C@@H]12` [Carbenoxolone], the plasma insulin entry in [4] (30 min after glucose, both lean and obese animals) is on record as “increased”. Moreover, the plasma insulin result in [4] (120 min after glucose, obese animals) was “increased”. Besides, in series [4] (Zucker rats), the glucose tolerance entry is reported as “no effect”. For the same compound, the plasma insulin result in series [4] (fasting state, both lean and obese animals) was “increased”. Besides, the plasma glucose result in series [4] (lean and obese, fasting and after oral glucose load, two weeks of treatment) is “no significant effect”. Further, in [5], the “HDL (high density lipoprotein) cholesterol concentrations” value is listed as “raised”, the total cholesterol entry is “did not affect” and the triglyceride concentrations entry is given as “lowered”. For the same compound, in series [6], the body weight entry is on record as “no effect” and the food intake entry is reported as “no effect”. Further, at 11β-HSD1 [7], the “amount of glucose required to maintain normoglycemia” value is “increases” and the forearm glucose uptake entry is reported as “without altering”. Besides, the plasma corticosterone levels entry in series [8] (lean and obese, terminal blood, trend for carbenoxolone to increase) is “no statistically significant differences”. In [8] (lean animals), the adrenal weight entry is given as “no effect”. Moreover, the “adrenal weight (adrenal hypertrophy)” value in series [8] (obese rats) is given as “ameliorated”. The “hepatic 11β-HSD1 activity (conversion of corticosterone to 11-dehydrocorticosterone)” value at 11β-HSD1 [9] is “inhibition”. The “hepatic 5β-reductase activity (conversion of corticosterone to 5β-tetrahydrocorticosterone)” value on 5β-reductase [10] is on record as “exacerbated the increase”. In [11] (all groups, lean and obese), the “non-fasting plasma NEFAs” value is on record as “not different”. The total cholesterol result in [11] (non-fasting plasma, lean and obese rats, three weeks of treatment) is listed as “not affected”. Moreover, in series [11] (setting [12]), the HDL cholesterol entry is recorded as “increased” and the triglycerides entry is listed as “reduced”.
